Laboratory results as given in patent publication US20240132485A1, “HETEROCYCLIC CULLIN RING UBIQUITIN LIGASE COMPOUNDS AND USES THEREOF” (CEMM - FORSCHUNGSZENTRUM FÜR MOLEKULARE MEDIZIN GMBH, priority 2020, published 2024).

What was measured:
KBM7 cells (wild-type) = assay: KBM7 CTG EC50 assay (UBE2M wild-type); assay type: cell-based, human; conditions: for EC50: Homo sapiens, KBM-7, 72 h incubation, CellTiter-Glo, read-out: KBM7 CTG EC50 (UBE2M wild-type) Activity Class; for Ratio UBE2M WT to KO: ratio of anti-proliferative activity in KBM7 wild-type versus UBE2M knock-out cells (fold)
Text: (§1) This is a cell viability assay to measure the desired therapeutic effect, i.e. killing of cancer cells. The UBE2M mutant cell line has impaired activity of the Cullin-RING ligase system due to a hypomorphic mutation in UBE2M, which is required for activation of these E3 ligases. By comparison with WT cells, it is possible to estimate the contribution of Cyclin K degradation (which is reduced in UBE2M mut cells) compared to kinase inhibition of CDK12 (which is unaffected in UBE2M mut cells). Since the UBE2M mutation only reduces CRL function without fully abrogating it, this assay may slightly underestimate the effect of degradation because, at high compound concentrations, degradation may still be observed.
(§2) KBM7 cells (wild-type or harboring α hypomorphic UBE2M mutation (Mayor-Ruiz et al., 2019)) were seeded in a white opaque 384-well plate at a density of 1000 cells per well in duplicate, in full medium (IMDM+10% FBS+1% penicillin-streptomycin). Cells were treated with compounds in a 10-point titration with a dilution factor of 1:4 (range: 0 to 20 μM). After 72 h of incubation, the cell viability was determined using the CellTiter-Glo® 2.0 reactant (Promega), pre-diluted 1:4 in mQ water. The luminescence signal was measured using the multimode plate reader EnVision 2105 (Perkin Elmer).

CCNK = assay: NanoLuc-CCNK degradation assay (HEK293T_Nluc_CCNK-tagged cells); assay type: cell-based; conditions: 4 h incubation, HEK293T_Nluc_CCNK-tagged cells; for DC50: read-out: NanoLuc-CCNK degradation DC50 Activity Class
Method: The assay helps to elucidate the mechanistic explanation of the cell killing effect of the compounds of the present invention. Cyclin K is fused to a nanoluciferase, light emission is measured as a proxy of Cyclin K abundance. Potency of Cyclin K degradation and cytotoxicity of KBM7 correlate extremely well, further supporting Cyclin K degradation being the main driver of the cell killing, as opposed to inhibition of CDK12 catalytic activity.
HEK293T_Nluc_CCNK-tagged cells were engineered by integrating a nanoluciferase tag at the N-terminus of the endogenous locus of CCNK using CRISPR-Cas9 technology. Briefly, 5.5 million HEK293T cells were co-transfected by PEI with a 1:1 ratio of cutting vector (sgRNA: […]) and repair template (4 μg total plasmid) as previously described (Brand and Winter, 2019). The repair sequence comprises a cassette of puromycinR-P2A-HA-Nluc-(G4S)3 (P2A: self-cleaving peptide 2A, HA: HA-tag, (G4S)3: flexible linker), surrounded by 20-nucleotide microhomologies matching the genomic locus. After 3 days of incubation, the recombinant population was selected by puromycin treatment (2 μg/ml, 5-day treatment). A monoclonal population was obtained by limiting dilution and cassette integration validated by Sanger sequencing.
HEK293T_Nluc_CCNK-tagged cells were seeded in a white opaque 384-well plate at a density of 8000 cells per well in duplicate, in full medium (Opti-MEM I+4% FBS+1% PS). Cells were treated with compounds in a 10-point titration (range: 0 to 10 μM, 1:4 dilution). After 4 h of incubation, Nano-Glo substrate (Promega), pre-diluted in serum-free medium (Opti-MEM I), was added to the cells (1:500 final dilution). The luminescence signal was directly measured using the multimode plate reader EnVision 2105 (Perkin Elmer).

[1] = tested on: KBM7 cells harboring a hypomorphic UBE2M mutation; assay: KBM7 CTG EC50 assay (UBE2M knock-out); assay type: cell-based; conditions: Homo sapiens, KBM-7; 72 h incubation, CellTiter-Glo; read-out: KBM7 CTG EC50 (UBE2M knock-out) Activity Class
Text: as §1, §2

[2] = target: T1, DDB1-CDK12/Cyclin K ternary complex (Homo sapiens, UniProt Q16531+Q9NYV4); assay: NanoBRET fold-change assay (HaloTag_CDK12 / NanoLuc_DDB1 in HEK293T); assay type: cell-based; conditions: 10 μM compound, 10 minutes
T1 construct: expressed in transfected cells; host or cells: HEK293T wildtype cells, transient PEI transfection
T1 sequence (Q9NYV4 whole entry): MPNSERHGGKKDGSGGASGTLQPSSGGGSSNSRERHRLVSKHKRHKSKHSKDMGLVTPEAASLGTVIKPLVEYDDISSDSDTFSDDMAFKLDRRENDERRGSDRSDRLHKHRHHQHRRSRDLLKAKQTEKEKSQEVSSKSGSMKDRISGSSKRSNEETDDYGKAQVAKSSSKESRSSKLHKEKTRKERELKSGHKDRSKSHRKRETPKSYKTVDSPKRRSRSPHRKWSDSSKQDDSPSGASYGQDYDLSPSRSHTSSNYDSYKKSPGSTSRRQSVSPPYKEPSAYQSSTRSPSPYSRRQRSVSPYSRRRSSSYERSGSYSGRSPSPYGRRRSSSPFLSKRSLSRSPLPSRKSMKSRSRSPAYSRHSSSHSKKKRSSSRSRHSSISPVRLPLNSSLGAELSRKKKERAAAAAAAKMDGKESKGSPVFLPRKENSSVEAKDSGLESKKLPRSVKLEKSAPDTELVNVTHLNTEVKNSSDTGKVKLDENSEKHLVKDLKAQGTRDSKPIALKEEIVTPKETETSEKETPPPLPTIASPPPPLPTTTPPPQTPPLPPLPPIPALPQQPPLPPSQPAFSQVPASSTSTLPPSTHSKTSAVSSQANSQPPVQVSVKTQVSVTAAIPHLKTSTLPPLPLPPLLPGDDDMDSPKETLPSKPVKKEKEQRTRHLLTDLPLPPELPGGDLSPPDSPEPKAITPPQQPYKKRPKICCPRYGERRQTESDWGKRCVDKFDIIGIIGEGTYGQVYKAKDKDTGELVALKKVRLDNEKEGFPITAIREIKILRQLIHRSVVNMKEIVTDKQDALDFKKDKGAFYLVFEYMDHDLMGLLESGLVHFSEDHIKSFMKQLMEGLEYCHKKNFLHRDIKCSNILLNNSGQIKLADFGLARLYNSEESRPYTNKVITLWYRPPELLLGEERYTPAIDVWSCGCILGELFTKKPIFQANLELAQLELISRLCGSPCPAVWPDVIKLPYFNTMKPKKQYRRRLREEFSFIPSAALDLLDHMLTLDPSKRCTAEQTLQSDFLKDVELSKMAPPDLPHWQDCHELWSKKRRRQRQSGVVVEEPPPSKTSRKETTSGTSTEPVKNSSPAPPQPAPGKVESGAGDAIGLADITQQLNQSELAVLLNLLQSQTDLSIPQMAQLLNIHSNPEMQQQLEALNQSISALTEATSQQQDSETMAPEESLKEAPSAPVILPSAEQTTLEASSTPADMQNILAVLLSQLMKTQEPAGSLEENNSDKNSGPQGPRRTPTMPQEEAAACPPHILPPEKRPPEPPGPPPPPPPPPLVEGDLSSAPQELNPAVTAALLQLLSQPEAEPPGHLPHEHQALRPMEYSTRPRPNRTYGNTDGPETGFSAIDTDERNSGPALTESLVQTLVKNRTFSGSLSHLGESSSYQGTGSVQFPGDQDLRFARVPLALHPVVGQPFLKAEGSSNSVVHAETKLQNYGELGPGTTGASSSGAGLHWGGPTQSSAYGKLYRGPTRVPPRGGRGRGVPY
T1 sequence (Q16531 whole entry): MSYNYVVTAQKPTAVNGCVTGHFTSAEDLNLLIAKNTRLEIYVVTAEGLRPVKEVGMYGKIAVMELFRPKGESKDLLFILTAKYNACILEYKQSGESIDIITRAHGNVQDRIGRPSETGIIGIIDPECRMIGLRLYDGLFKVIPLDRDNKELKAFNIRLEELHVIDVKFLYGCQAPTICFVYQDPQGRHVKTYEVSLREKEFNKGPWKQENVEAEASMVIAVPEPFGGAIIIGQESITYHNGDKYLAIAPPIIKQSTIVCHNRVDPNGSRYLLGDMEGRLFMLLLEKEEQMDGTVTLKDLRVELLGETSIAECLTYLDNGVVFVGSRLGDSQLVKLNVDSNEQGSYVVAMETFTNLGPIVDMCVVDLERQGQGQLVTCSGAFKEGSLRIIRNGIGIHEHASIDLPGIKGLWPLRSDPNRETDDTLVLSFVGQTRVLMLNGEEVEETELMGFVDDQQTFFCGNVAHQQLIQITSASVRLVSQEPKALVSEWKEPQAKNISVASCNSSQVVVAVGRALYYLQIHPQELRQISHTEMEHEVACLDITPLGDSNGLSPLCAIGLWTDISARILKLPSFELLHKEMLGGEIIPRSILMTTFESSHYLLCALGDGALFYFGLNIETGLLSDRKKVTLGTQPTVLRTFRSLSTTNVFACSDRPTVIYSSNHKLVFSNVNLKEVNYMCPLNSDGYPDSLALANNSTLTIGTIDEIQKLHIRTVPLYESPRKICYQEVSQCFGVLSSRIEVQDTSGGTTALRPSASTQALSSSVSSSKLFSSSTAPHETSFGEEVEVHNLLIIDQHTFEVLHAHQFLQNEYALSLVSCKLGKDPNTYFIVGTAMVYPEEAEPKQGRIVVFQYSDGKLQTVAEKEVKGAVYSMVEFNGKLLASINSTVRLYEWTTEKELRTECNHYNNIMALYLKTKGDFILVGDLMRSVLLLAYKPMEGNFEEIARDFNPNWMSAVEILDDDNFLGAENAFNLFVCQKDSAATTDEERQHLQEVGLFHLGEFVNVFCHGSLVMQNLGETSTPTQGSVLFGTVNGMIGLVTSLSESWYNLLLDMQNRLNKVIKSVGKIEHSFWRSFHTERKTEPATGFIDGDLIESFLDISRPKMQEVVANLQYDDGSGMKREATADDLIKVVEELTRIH
T1 sequence (O75909 whole entry partner): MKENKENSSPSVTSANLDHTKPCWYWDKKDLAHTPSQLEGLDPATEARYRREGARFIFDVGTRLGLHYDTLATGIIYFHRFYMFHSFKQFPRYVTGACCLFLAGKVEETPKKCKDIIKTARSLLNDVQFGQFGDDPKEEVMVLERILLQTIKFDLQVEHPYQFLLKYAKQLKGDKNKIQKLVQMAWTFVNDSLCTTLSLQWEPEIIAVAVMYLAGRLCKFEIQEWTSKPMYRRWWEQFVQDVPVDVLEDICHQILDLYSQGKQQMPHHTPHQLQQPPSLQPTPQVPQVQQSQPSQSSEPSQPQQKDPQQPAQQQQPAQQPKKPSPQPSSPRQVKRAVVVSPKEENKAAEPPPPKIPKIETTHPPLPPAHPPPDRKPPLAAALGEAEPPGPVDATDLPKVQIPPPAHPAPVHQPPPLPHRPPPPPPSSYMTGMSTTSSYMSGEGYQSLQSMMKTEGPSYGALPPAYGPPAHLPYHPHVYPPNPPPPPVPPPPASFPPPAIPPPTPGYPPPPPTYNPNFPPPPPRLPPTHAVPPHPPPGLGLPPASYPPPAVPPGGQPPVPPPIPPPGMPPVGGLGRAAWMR
Method: This assay measures the interaction/recruitment of CDK12/Cyclin K to DDB1, mechanistically validating the molecular glue pharmacology.
HEK293T wildtype cells are seeded 800 k cells/well (DMEM+10% FBS+1% PS) in a 6-well plate and allowed to attach for ˜7 hours followed by a transient transfection of 1.5 μg HaloTag_CDK12 Plasmid [Table 1] and 0.15 μg NanoLuc_DDB1 plasmid [Table 1] per well using PEI. Cells are incubated at 37° C., 5% CO2, harvested after 24 hours and resuspended in assay media (Opti-MEM Reduced serum media, no phenol red, 4% FBS, 1% PS). Cells are adjusted to 2.3×10^5 cells/ml and treated with HaloTag 618 Ligand at 100 nM or DMSO. 8000 cells are seeded per well in triplicates per compound in a white-walled 384-well plate, one negative control treated with DMSO instead of HaloTag 618 Ligand is seeded in triplicates and the 384-well plate is incubated at 37° C., 5% CO2 overnight. Compound stock solutions are prepared in Opti-MEM−/− (Opti-MEM I Reduced serum media, no phenol red) at 8× and used to treat the cells at a final concentration of 1× at 10 μM. Cells and compounds are incubated for 10 minutes at room temperature followed by addition of NanoBRET Nano-Glo substrate following manufacturer's protocols. The plate is shaken for 30 sec followed by immediate measurement of donor emission (NanoBRET Blue at 460 nm) and acceptor emission (BRET Deep Red at 647 nm) for 0.5 s.

SMILES: Cc1ccc2c(ccn2CC(=O)Nc2ncc(C(F)(F)F)s2)c1 [Example 3-37, 2-(5-methyl-1H-indol-1-yl)-N-(5-(trifluoromethyl)thiazol-2-yl)acetamide]
- EC50 (KBM7 cells (wild-type)): 1000 to 10000 nM
- Ratio UBE2M WT to KO (KBM7 cells (wild-type)): >4
- DC50 (CCNK): > 10000 nM
- EC50 [1]: > 10000 nM
- NanoBRET fold-change Activity Class [2]: C (2-3 fold increase)

SMILES: O=C(Nc1ncc(C(F)(F)F)s1)C1CC(=O)N(Cc2ccc(Cl)cc2)C1 (centres unmarked) [Example 3-28, 1-(4-chlorobenzyl)-5-oxo-N-(5-(trifluoromethyl)thiazol-2-yl)pyrrolidine-3-carboxamide]
- EC50 (KBM7 cells (wild-type)): ≤ 250 nM
- Ratio UBE2M WT to KO (KBM7 cells (wild-type)): 42.7
- NanoLuc-CCNK degradation DC50 Activity Class (CCNK): C (1.0 μM≤DC50<0.50 μM)
- EC50 [1]: 1000 to 10000 nM
- NanoBRET fold-change Activity Class [2]: B (3-4 fold increase)

SMILES: O=C(Nc1ncc(C(F)(F)F)s1)C1CC(=O)N(c2cc(F)cc(F)c2)C1 (centres unmarked) [Example 3-21, 1-(3,5-difluorophenyl)-5-oxo-N-(5-(trifluoromethyl)thiazol-2-yl)pyrrolidine-3-carboxamide]
- EC50 (KBM7 cells (wild-type)): ≤ 250 nM
- Ratio UBE2M WT to KO (KBM7 cells (wild-type)): 44.5
- NanoLuc-CCNK degradation DC50 Activity Class (CCNK): B (0.50 μM≤DC50<0.10 μM)
- EC50 [1]: 1000 to 10000 nM
- NanoBRET fold-change Activity Class [2]: B (3-4 fold increase)

SMILES: CC(C)c1cc(NC(=O)Cc2cn3cc(F)ccc3n2)n[nH]1 [Example 3-57, 2-(6-fluoroimidazo[1,2-a]pyridin-2-yl)-N-(5-isopropyl-1H-pyrazol-3-yl)acetamide]
- EC50 (KBM7 cells (wild-type)): ≤ 250 nM
- Ratio UBE2M WT to KO (KBM7 cells (wild-type)): 146.3
- NanoLuc-CCNK degradation DC50 Activity Class (CCNK): B (0.50 μM≤DC50<0.10 μM)
- EC50 [1]: 1000 to 10000 nM
- NanoBRET fold-change Activity Class [2]: B (3-4 fold increase)

SMILES: Cc1cc(NC(=O)Cc2cn3cc(F)ccc3n2)n[nH]1 [Example 3-56, 2-(6-fluoroimidazo[1,2-a]pyridin-2-yl)-N-(5-methyl-1H-pyrazol-3-yl)acetamide]
- EC50 (KBM7 cells (wild-type)): 250 to 500 nM
- Ratio UBE2M WT to KO (KBM7 cells (wild-type)): >10
- DC50 (CCNK): > 10000 nM
- EC50 [1]: > 10000 nM
- NanoBRET fold-change Activity Class [2]: C (2-3 fold increase)

SMILES: Cc1ccc2c(CC(=O)Nc3ccc(C(F)(F)F)cn3)coc2c1C [Example 3-54, 2-(6,7-dimethylbenzofuran-3-yl)-N-(5-(trifluoromethyl)pyridin-2-yl)acetamide]
- EC50 (KBM7 cells (wild-type)): ≤ 250 nM
- Ratio UBE2M WT to KO (KBM7 cells (wild-type)): 24.7
- DC50 (CCNK): > 10000 nM
- EC50 [1]: 1000 to 10000 nM
- NanoBRET fold-change Activity Class [2]: C (2-3 fold increase)

SMILES: O=C(Cc1cccc2ccncc12)Nc1ncc(C(F)(F)F)s1 [Example 3-33, 2-(isoquinolin-8-yl)-N-(5-(trifluoromethyl)thiazol-2-yl)acetamide]
- EC50 (KBM7 cells (wild-type)): ≤ 250 nM
- Ratio UBE2M WT to KO (KBM7 cells (wild-type)): 64.7
- DC50 (CCNK): > 10000 nM
- EC50 [1]: 1000 to 10000 nM
- NanoBRET fold-change Activity Class [2]: A (greater than 4-fold increase)

SMILES: O=C(Nc1ncc(C(F)(F)F)s1)C1CC(=O)N(Cc2ccccc2)C1 (centres unmarked) [Example 3-27, 1-benzyl-5-oxo-N-(5-(trifluoromethyl)thiazol-2-yl)pyrrolidine-3-carboxamide]
- EC50 (KBM7 cells (wild-type)): ≤ 250 nM
- Ratio UBE2M WT to KO (KBM7 cells (wild-type)): >10
- DC50 (CCNK): ≤ 100 nM
- EC50 [1]: > 10000 nM
- NanoBRET fold-change Activity Class [2]: B (3-4 fold increase)

SMILES: Cc1ccc2c(CC(=O)Nc3ncc(C(C)C)s3)coc2c1C [Example 3-2, 2-(6,7-dimethylbenzofuran-3-yl)-N-(5-isopropylthiazol-2-yl)acetamide]
- EC50 (KBM7 cells (wild-type)): ≤ 250 nM
- Ratio UBE2M WT to KO (KBM7 cells (wild-type)): 12.7
- DC50 (CCNK): ≤ 100 nM
- EC50 [1]: 500 to 1000 nM
- NanoBRET fold-change Activity Class [2]: B (3-4 fold increase)

SMILES: CC(C(=O)Nc1ncc(C(F)(F)F)s1)c1cc2ccccc2s1 (centres unmarked) [Example 3-11, 2-(benzo[b]thiophen-2-yl)-N-(5-(trifluoromethyl)thiazol-2-yl)propanamide]
- EC50 (KBM7 cells (wild-type)): ≤ 250 nM
- Ratio UBE2M WT to KO (KBM7 cells (wild-type)): 9.4
- DC50 (CCNK): ≤ 100 nM
- EC50 [1]: ≤ 250 nM
- NanoBRET fold-change Activity Class [2]: A (greater than 4-fold increase)
